Values of other authors, collected in article PMC10318822, “Phase 1 dose-escalation study to evaluate the safety, tolerability, pharmacokinetics, and anti-tumor activity of FCN-159 in adults with neurofibromatosis type 1-related unresectable plexiform neurofibromas” (BMC Medicine, 2023).

Columns and labels:
[1] = system: MAPK pathway (phosphorylation of MEK kinase and intracellular ERK); set-up: method as in doi:10.1158/1538-7445.AM2020-1951; settings: human colon cancer cells; preventing phosphorylation of MEK kinase and intracellular ERK; cited from earlier work
[2] = system: RAS-mutant tumor cell lines; set-up: method as in doi:10.1158/1538-7445.AM2020-1951; settings: selected RAS-mutant tumor cell lines; cited from earlier work
[3] = set-up: method as in PMID 36627544; settings: healthy volunteers, compared with fasted state; cited from earlier work

## Cn1c(=O)c(F)c(Nc2ccc(I)cc2F)c2c(=O)n(C3CC3)nc(-c3cccc(NS(=O)(=O)C4CC4)c3)c21 [FCN-159]
[1]
  Effect on downstream MAPK pathway: blocks the downstream MAPK pathway
[2]
  Cell proliferation: inhibiting cell proliferation
[3]
  Food effect on pharmacokinetic profile: food did not affect the pharmacokinetic profile
